Here are results for 28 compounds from patent US20260042755A1, “GPR6 INVERSE AGONISTS” (MapLight Therapeutics, Inc., priority 2022, published 2026).

In assay [1] the target is T1, GPR6 (Homo sapiens, UniProt P46095).
T1 construct: expressed in transfected cells; host or cells: CHO cells
Kind of assay: GPR6 antagonist functional cAMP assay (LANCE Ultra cAMP TR-FRET, CHO cells stably expressing GPR6). It counts as cell-based. In short, it runs like this: (§1)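 Cells in Krebs-Ringer buffer with 0.1% BSA and 150 μM Ro 20-1724 PDE inhibitor were exposed to compounds for 45 min at 37 °C (0.1% DMSO). cAMP was read by TR-FRET at 665 nm; IC50s came from 4-parameter fits normalized to DMSO and reference compound.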

Assay [2] deals with T2, GPR3 (Homo sapiens, UniProt P46089).
T2 construct: expressed in transfected cells; host or cells: CHO cells
In words: GPR3 antagonist functional cAMP assay (LANCE Ultra cAMP TR-FRET, CHO cells stably expressing GPR3). It counts as cell-based. An outline of the steps:
as §1

Setting [3] is: CHO cells stably expressing GPR6, cAMP assay.
[4] abbreviates: CHO cells stably expressing GPR3, cAMP assay.
The mark [5] stands for this setting: CHO cells stably expressing GPR6, cAMP assay (Example 24).
[6] abbreviates: CHO cells stably expressing GPR3, cAMP assay (Example 24).
Setting [7] is: procedure as described in Example 24.

T2 sequence (P46089 whole entry, species assumed): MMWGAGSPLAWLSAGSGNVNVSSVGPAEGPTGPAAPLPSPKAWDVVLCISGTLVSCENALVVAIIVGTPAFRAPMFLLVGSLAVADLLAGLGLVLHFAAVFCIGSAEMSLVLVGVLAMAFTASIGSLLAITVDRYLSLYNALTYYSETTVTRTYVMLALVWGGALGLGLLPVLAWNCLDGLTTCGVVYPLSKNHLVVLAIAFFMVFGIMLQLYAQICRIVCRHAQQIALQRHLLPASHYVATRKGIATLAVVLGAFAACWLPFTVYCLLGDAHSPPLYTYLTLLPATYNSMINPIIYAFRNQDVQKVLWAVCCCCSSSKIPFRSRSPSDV
T1 sequence (P46095 whole entry): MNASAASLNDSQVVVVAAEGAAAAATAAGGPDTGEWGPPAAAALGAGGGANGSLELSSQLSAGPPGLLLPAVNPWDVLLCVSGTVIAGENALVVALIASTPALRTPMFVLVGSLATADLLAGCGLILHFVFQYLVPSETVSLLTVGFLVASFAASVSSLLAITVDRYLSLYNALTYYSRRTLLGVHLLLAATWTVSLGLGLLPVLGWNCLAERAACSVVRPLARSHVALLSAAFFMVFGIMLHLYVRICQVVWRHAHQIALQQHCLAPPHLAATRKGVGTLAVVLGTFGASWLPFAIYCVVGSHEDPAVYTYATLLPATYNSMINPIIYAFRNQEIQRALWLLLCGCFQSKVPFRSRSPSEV

Turning to `CC(=O)N1CCc2nc(N3CCC(Oc4ccc(F)cc4F)CC3)c(C3CCN(S(C)(=O)=O)C3)nc2C1` (centres unmarked) [Compound 543, 1-{2-[4-(2,4-difluorophenoxy)-1-piperidyl]-3-(1-mesyl-3-pyrrolidinyl)-5,6,7,8-tetrahydro-1,4,6-triaza-6-naphthyl}-1-ethanone], the IC50 in assay [1] (setting [3]) and in assay [2] (setting [4]) was 1000 to 30000 nM throughout.

In the case of `CC(=O)N1CCc2nc(N3CCN(C(=O)c4ccc(F)cc4)CC3)c(-c3cnn(C)c3)nc2C1` [Compound 255, 1-{2-[4-(4-fluorobenzoyl)piperazin-1-yl]-3-(1-methyl-1H-pyrazol-4-yl)-5H,6H,7H,8H-pyrido[3,4-b]pyrazin-6-yl}ethan-1-one], the IC50 in assay [1] (setting [5]) and in assay [2] (setting [6]) was 1000 to 30000 nM in each case.

Regarding `COCC(O)c1cc2nc(N3CCN(Cc4ccc(F)cc4F)CC3)c(-c3cnn(C(F)F)c3)nc2cn1` (centres unmarked) [Compound 687, 1-{3-[1-(difluoromethyl)-4-pyrazolyl]-2-{4-[(2,4-difluorophenyl)methyl]-1-piperazinyl}-1,4,6-triaza-7-naphthyl}-2-methoxy-1-ethanol], the IC50 in assay [1] (procedure of Example 24) lay in the range of 100 to 1000 nM; in assay [2] (procedure of Example 24), 1000 to 30000 nM.

As for `CC(=O)N1CCc2nc(N3CCC(Oc4ccc(F)cc4F)CC3)c(-c3ccnc(Cl)n3)nc2C1` [Compound 466, 1-[3-(2-chloropyrimidin-4-yl)-2-[4-(2,4-difluorophenoxy)piperidin-1-yl]-5H,6H,7H,8H-pyrido[3,4-b]pyrazin-6-yl]ethan-1-one], the IC50 in assay [1] (setting [5]) and in assay [2] (setting [6]) was 1000 to 30000 nM throughout.

Take `CC(=O)N1CCc2nc(N3CCC(Oc4ccc(F)cc4F)CC3)c(-c3cncc(N)n3)nc2C1` [Compound 465, 1-[3-(6-aminopyrazin-2-yl)-2-[4-(2,4-difluorophenoxy)piperidin-1-yl]-5H,6H,7H,8H-pyrido[3,4-b]pyrazin-6-yl]ethan-1-one]: the IC50 in assay [1] (setting [5]) lay in the range of 100 to 1000 nM; in assay [2] (setting [6]) it was 1000 to 30000 nM.

Consider `CC(=O)N1CCc2nc(N3CCC(C(=O)N(C)c4ccc(F)cc4)C3)c(-c3cnn(C)c3)nc2C1` (centres unmarked) [Compound 385, 1-[6-acetyl-3-(1-methyl-1H-pyrazol-4-yl)-5H,6H,7H,8H-pyrido[3,4-b]pyrazin-2-yl]-N-(4-fluorophenyl)-N-methylpyrrolidine-3-carboxamide], for which the figures for the IC50 in assay [1] (setting [5]) and in assay [2] (setting [6]) were no less than 30000 nM and 1000 to 30000 nM, respectively.

With `CC(=O)N1CCc2nc(N3CCC(Oc4ccc(F)cc4F)CC3)c(C3CCS(=O)(=O)CC3)nc2C1` [Compound 218, 4-{6-acetyl-2-[4-(2,4-difluorophenoxy)piperidin-1-yl]-5H,6H,7H,8H-pyrido[3,4-b]pyrazin-3-yl}-1λ^6-thiane-1,1-dione], the IC50 in assay [1] (setting [5]) and in assay [2] (setting [6]) was 1000 to 30000 nM in each case.

Take `CN(c1ccc(F)cc1F)C1CCN(c2nc3ccncc3nc2-c2cn[nH]c2)CC1` [Compound 55, 1-(3-(1H-pyrazol-4-yl)pyrido[3,4-b]pyrazin-2-yl)-N-(2,4-difluorophenyl)-N-methylpiperidin-4-amine]: the concentration for half-maximal inhibition (IC50) in assay [1] (setting [7]) and in assay [2] (setting [7]) was 1000 to 30000 nM each time.

For the compound `Nc1cc2nc(N3CCC(Oc4ccc(F)cc4F)CC3)c(-c3cnn(C(F)F)c3)nc2cn1` [Compound 460, 3-[1-(difluoromethyl)-1H-pyrazol-4-yl]-2-[4-(2,4-difluorophenoxy)piperidin-1-yl]pyrido[3,4-b]pyrazin-7-amine], the IC50 in assay [1] (setting [5]) was 100 to 1000 nM; in assay [2] (setting [6]), 1000 to 30000 nM.

Take `CC(=O)N1CCc2nc(N3CCC(Oc4ccc(Cl)cc4Cl)CC3)c(-c3cnn(C)c3)nc2C1` [Compound 429, 1-{2-[4-(2,4-dichlorophenoxy)piperidin-1-yl]-3-(1-methyl-1H-pyrazol-4-yl)-5H,6H,7H,8H-pyrido[3,4-b]pyrazin-6-yl}ethan-1-one]: the IC50 in assay [1] (setting [5]) lay in the range of 100 to 1000 nM; in assay [2] (setting [6]), 1000 to 30000 nM.

For `CC(=O)N1CCc2nc(N3CCN(Cc4cccc(F)c4F)CC3)c(-c3cnn(C)c3)nc2C1` [Compound 320, 1-(2-{4-[(2,3-difluorophenyl)methyl]piperazin-1-yl}-3-(1-methyl-1H-pyrazol-4-yl)-5H,6H,7H,8H-pyrido[3,4-b]pyrazin-6-yl)ethan-1-one], the IC50 in assay [1] (procedure of Example 24) and in assay [2] (procedure of Example 24) was 1000 to 30000 nM each time.

Take `CC(=O)N1CCc2nc(N3CCC(Oc4ccc(F)cc4F)CC3)c(-c3cnn(CCO)c3)nc2C1` [Compound 88, 1-{2-[4-(2,4-difluorophenoxy)piperidin-1-yl]-3-[1-(2-hydroxyethyl)-1H-pyrazol-4-yl]-5H,6H,7H,8H-pyrido[3,4-b]pyrazin-6-yl}ethan-1-one]: the IC50 in assay [1] (setting [5]) and in assay [2] (setting [6]) was 1000 to 30000 nM each time.

For the compound `CCn1cc(-c2nc3cnc([C@@H](O)C(C)(C)O)cc3nc2N2CCN(Cc3ccc(F)cc3F)CC2)cn1` (single isomer, unassigned) [Compound 574], the IC50 in assay [1] (setting [3]) was 100 to 1000 nM; in assay [2] (setting [4]), 1000 to 30000 nM.

For `CC(=O)N1CCc2nc(N3CCN(Cc4ccc(F)cc4F)C[C@@H]3C)c(-c3cnn(C)c3)nc2C1` (single isomer, unassigned) [Compound 232], the IC50 in assay [1] (setting [5]) and in assay [2] (setting [6]) was 1000 to 30000 nM each time.

For the compound `COCn1ccnc1-c1nc2c(nc1N1CCC(Oc3ccc(F)cc3F)CC1)CCN(C(C)=O)C2` [Compound 67, 1-{2-[4-(2,4-difluorophenoxy)piperidin-1-yl]-3-[1-(methoxymethyl)-1H-imidazol-2-yl]-5H,6H,7H,8H-pyrido[3,4-b]pyrazin-6-yl}ethan-1-one], the IC50 in assay [1] (setting [5]) and in assay [2] (setting [6]) was 1000 to 30000 nM in each case.

With `CC(=O)N1CCc2nc(N3CCN(Cc4cccc(C#N)c4)CC3)c(-c3cnn(C)c3)nc2C1` [Compound 512, m-({4-[6-acetyl-3-(1-methyl-4-pyrazolyl)-5,6,7,8-tetrahydro-1,4,6-triaza-2-naphthyl]-1-piperazinyl}methyl)benzonitrile], the IC50 in assay [1] (setting [3]) and in assay [2] (setting [4]) was 1000 to 30000 nM throughout.

On to `CC(C)(O)[C@H](O)c1cc2nc(N3CCN(Cc4ccccc4F)CC3)c(-c3cnn(C(F)F)c3)nc2cn1` (single isomer, unassigned) [Compound 612], for which the IC50 in assay [1] (procedure of Example 24) was 100 to 1000 nM; in assay [2] (procedure of Example 24), 1000 to 30000 nM.

As to `CC(C)(O)C(O)c1ncc2nc(-c3cnn(CF)c3)c(N3CCN(Cc4ccc(F)cc4F)CC3)nc2c1F` (racemic) [Compound 797, 1-(2-{4-[(2,4-difluorophenyl)methyl]-1-piperazinyl}-8-fluoro-3-[1-(fluoromethyl)-4-pyrazolyl]-1,4,6-triaza-7-naphthyl)-2-methyl-1,2-propanediol], the IC50 in assay [1] (procedure of Example 24) was 100 to 1000 nM; in assay [2] (procedure of Example 24), 1000 to 30000 nM.

Regarding `CC(=O)N1CCc2nc(N3CCC(Oc4ccc(F)cc4F)CC3)c(C3CCC(=O)CC3)nc2C1` [Compound 404, 4-(6-acetyl-2-(4-(2,4-difluorophenoxy)piperidin-1-yl)-5,6,7,8-tetrahydropyrido[3,4-b]pyrazin-3-yl)cyclohexan-1-one], the IC50 in assay [1] (setting [5]) and in assay [2] (setting [6]) was 1000 to 30000 nM throughout.

With `Cn1cc(-c2nc3cnc([C@H](O)C(C)(C)O)cc3nc2N2CCN(Cc3ccc(F)cc3F)CC2)cn1` (single isomer, unassigned) [Compound 579], the values for the IC50 in assay [1] (setting [3]) and in assay [2] (setting [4]) were less than 100 nM and 100 to 1000 nM, respectively.

For `CC(=O)N1CCc2nc(N3CCC(Oc4ccc(F)cc4F)CC3)c(-c3ncn[nH]3)nc2C1` [Compound 1, 1-{2-[4-(2,4-difluorophenoxy)piperidin-1-yl]-3-(1H-1,2,4-triazol-5-yl)-5H,6H,7H,8H-pyrido[3,4-b]pyrazin-6-yl}ethan-1-one], the IC50 lay within 1000 to 30000 nM in assay [1] (setting [7]) and 100 to 1000 nM in assay [2] (setting [7]).

As to `Cn1cc(-c2nc3cnccc3nc2N2CCC(C)(Oc3ccc(F)cc3F)CC2)cn1` [Compound 188, 4-(2,4-difluorophenoxy)-4-methyl-1-[3-(1-methyl-1H-pyrazol-4-yl)pyrido[3,4-b]pyrazin-2-yl]piperidine], the IC50 in assay [1] (setting [5]) lay within 100 to 1000 nM; in assay [2] (setting [6]), 1000 to 30000 nM.

Regarding `CC(=O)N1CCc2nc(N3CCC(Oc4ccc(F)cc4F)CC3)c(-c3cccc(N(C)C)n3)nc2C1` [Compound 48, 1-{2-[4-(2,4-difluorophenoxy)piperidin-1-yl]-3-[6-(dimethylamino)pyridin-2-yl]-5H,6H,7H,8H-pyrido[3,4-b]pyrazin-6-yl}ethan-1-one], the IC50 in assay [1] (setting [7]) and in assay [2] (setting [7]) was 1000 to 30000 nM throughout.

In the case of `CC(C)(O)C(C)(O)c1cc2nc(-c3cnn(C(F)F)c3)c(N3CCN(Cc4ccc(F)cc4F)CC3)nc2cn1` (single isomer, unassigned) [Compound 662], the IC50 was less than 100 nM in assay [1] (procedure of Example 24) and 1000 to 30000 nM in assay [2] (procedure of Example 24).

`CCn1cc(-c2nc3cnccc3nc2N2CCC(Oc3cc(Cl)ccc3Cl)CC2)cn1` [Compound 288, 4-(2,5-dichlorophenoxy)-1-[3-(1-ethyl-1H-pyrazol-4-yl)pyrido[3,4-b]pyrazin-2-yl]piperidine]: the figures for the IC50 in assay [1] (procedure of Example 24) and in assay [2] (procedure of Example 24) were less than 100 nM and 1000 to 30000 nM, respectively.

For the compound `COC[C@](C)(O)c1cc2nc(N3CCC(Oc4ccc(F)cc4F)CC3)c(-c3cnn(C)c3)nc2cn1` (single isomer, unassigned) [Compound 614], the IC50 in assay [1] (procedure of Example 24) was 100 to 1000 nM; in assay [2] (procedure of Example 24), 1000 to 30000 nM.

Regarding `CC(=O)N1CCc2nc(C3=CCC(Oc4ccc(F)cc4F)CC3)c(-c3ncco3)nc2C1` (centres unmarked) [Compound 303, 1-{2-[4-(2,4-difluorophenoxy)cyclohex-1-en-1-yl]-3-(1,3-oxazol-2-yl)-5H,6H,7H,8H-pyrido[3,4-b]pyrazin-6-yl}ethan-1-one], the IC50 in assay [1] (procedure of Example 24) and in assay [2] (procedure of Example 24) was no less than 30000 nM in each case.

Turning to `CC(=O)N1CCc2nc(N3CCN(Cc4cc(Cl)ccc4F)CC3)c(-c3ccc(F)c(N)n3)nc2C1` [Compound 582, 1-[3-(6-amino-5-fluoro-2-pyridyl)-2-{4-[(5-chloro-2-fluorophenyl)methyl]-1-piperazinyl}-5,6,7,8-tetrahydro-1,4,6-triaza-6-naphthyl]-1-ethanone], the IC50 in assay [1] (setting [3]) was less than 100 nM; in assay [2] (setting [4]), 1000 to 30000 nM.
